Source: PMC5552351, “Bacteriological profiling of diphenylureas as a novel class of antibiotics against methicillin-resistant Staphylococcus aureus” (PLoS ONE, 2017)
In brackets after ≈: the same amount, converted by molar mass.

Legend:
[1] = test system: Bacillus subtilis; assay: Bacterial Cytological Profiling (BCP); type: cell-based; conditions: two hours, LB-MSM osmotically buffered media, 37 °C
Method: B. subtilis cells were grown in Luria Bertani (LB) medium at 37 °C until the optical density at 600 nm (OD600) was ~0.20. Cells were then left untreated or treated with compound 1 or control antibiotics in the presence of methylsulfonylmethane (MSM), as described previously. After two hours, cells were stained with FM 4−64 (1 μg/mL) to visualize cell membranes; DAPI (1 μg/ml) to visualize DNA, and SYTOX Green (1 μg/mL), a vital stain which is normally excluded from cells with an intact membrane but brightly stains cells that are lysed. Images were collected using a Delta Vision Spectris Deconvolution microscope, as described previously.

[2] = test system: S. aureus ATCC 6538 biofilm; assay: biofilm mass disruption, crystal violet reporter assay; type: cell-based, Staphylococcus aureus; conditions: all concentrations tested
Method: (§1) Compounds 1, 2, and vancomycin were examined for their ability to eradicate mature staphylococcal biofilm using the microtiter dish biofilm formation assay. S. epidermidis NRS101 and S. aureus ATCC 6538 were selected as the test organisms given their ability to form strong adherent biofilm. An overnight culture of bacteria was diluted (1:100 in TSB + 1% glucose) and transferred to a 96-well plate. The plate was incubated for 24 hours at 37 °C in order to form adherent biofilm on the surface of the plate wells. The medium containing the bacterial suspension was removed and the biofilm was washed with sterile PBS to remove planktonic cells. Compounds 1, 2, or vancomycin (from 128 to 1 μg/mL), in triplicate, in TSB were incubated with the biofilm for 24 hours at 37 °C.
(§2) Compounds were subsequently removed. The biofilm was washed with PBS and then stained with 1% (w/v) crystal violet for 40 minutes. The stain was removed and wells were washed with sterile PBS. Wells were next decolorized using 95% ethanol. The optical density of each well at 595 nm was measured using a microplate reader.

[3] = test system: S. epidermidis NRS101; assay: broth microdilution MIC; type: cell-based; conditions: Staphylococcus epidermidis, NRS101
Method: (§3) The broth microdilution assay was employed to determine the MIC of compounds 1, 2, and vancomycin against five MRSA strains, four VRSA strains, one highly mupirocin-resistant S. aureus strain, one biofilm-forming S. aureus (ATCC 6538) strain, and one biofilm-forming methicillin-resistant S. epidermidis strain, as per the guidelines of the Clinical and Laboratory Standards Institute (CLSI). […] The MBC was determined by plating an aliquot (5 μL) from wells with no growth onto TSA plates. Plates were incubated at 37 °C for 19 hours before recording the MBC (concentration where no growth was observed on TSA plates).

[4] = test system: S. aureus ATCC 6538; assay: broth microdilution MIC; type: cell-based; conditions: Staphylococcus aureus, ATCC6538
Method: as §3

[5] = test system: clinically-relevant strains of MRSA and VRSA; assay: broth microdilution MIC/MBC, panel summary; type: cell-based; conditions: Staphylococcus aureus, read-out: concentration inhibiting growth of MRSA isolates (MIC)
Method: as §3

[6] = test system: S. epidermidis NRS101 biofilm; assay: bacterial CFU inside mature biofilm post-treatment; type: cell-based, Staphylococcus epidermidis; conditions: 24 hours
Method: as §1
(§4) For enumeration of viable CFU inside the biofilm, compounds were removed, wells were washed with sterile PBS, and treated with 0.25% Trypsin-2.21 mM EDTA solution as described elsewhere. The solution containing cells was transferred to a 96-well plate, serially diluted in PBS, and plated on TSA. Plates were incubated at 37 °C for 19 hours before viable CFU were counted. Data are presented as average log10(CFU/mL) of bacteria present in the biofilm post-treatment.

[7] = test system: S. epidermidis NRS101 biofilm; assay: biofilm mass disruption, crystal violet reporter assay; type: cell-based, Staphylococcus epidermidis; conditions: 24-hour treatment
Method: as §1, §2

[8] = test system: VRS10; assay: microbe, parasite or virus in culture; type: cell-based, Staphylococcus aureus; conditions: Staphylococcus aureus, read-out: MIC of vancomycin
Method: (§5) CAMHB was inoculated with strain VRS4 or strain VRS10 (5×10^5 CFU/mL), as described previously, with the following modifications. Aliquots ([…]) of the bacterial suspension were divided into micro-centrifuge tubes and compounds 1 or 2 (at ½ × MIC) were introduced into each tube. After 30 minutes of incubation at room temperature, samples from each tube were transferred to a new micro-centrifuge tube, prior to addition of vancomycin (at 128 μg/mL). Plates containing the test agents and bacteria were then incubated at 37 °C for 20–22 hours after which the MIC value was determined. A fold-reduction was calculated by comparing the MIC of vancomycin compared to the MIC of vancomycin given in combination with compounds 1 or 2 (at ½ × MIC).

[9] = test system: VRS4; assay: microbe, parasite or virus in culture; type: cell-based, Staphylococcus aureus; conditions: Staphylococcus aureus, read-out: MIC of vancomycin
Method: as §5

[10] = test system: MRSA NRS384 (USA300); assay: broth microdilution MIC/MBC; type: cell-based; conditions: Staphylococcus aureus
Method: as §3

[11] = test system: VRS10; assay: broth microdilution MIC/MBC; type: cell-based; conditions: Staphylococcus aureus
Method: as §3

[12] = test system: MRSA NRS483 (USA1000); assay: broth microdilution MIC/MBC; type: cell-based; conditions: Staphylococcus aureus
Method: as §3

[13] = test system: S. aureus NRS107; assay: broth microdilution MIC/MBC; type: cell-based; conditions: Staphylococcus aureus, NRS107
Method: as §3

[14] = test system: VRS11a; assay: broth microdilution MIC/MBC; type: cell-based; conditions: Staphylococcus aureus
Method: as §3

[15] = test system: MRSA NRS484 (USA1100); assay: broth microdilution MIC/MBC; type: cell-based; conditions: Staphylococcus aureus
Method: as §3

[16] = test system: VRS7; assay: broth microdilution MIC/MBC; type: cell-based; conditions: Staphylococcus aureus
Method: as §3

[17] = test system: MRSA NRS123 (USA400); assay: broth microdilution MIC/MBC; type: cell-based; conditions: Staphylococcus aureus
Method: as §3

[18] = test system: MRSA NRS387 (USA800); assay: broth microdilution MIC/MBC; type: cell-based; conditions: Staphylococcus aureus
Method: as §3

[19] = test system: VRS4; assay: broth microdilution MIC/MBC; type: cell-based; conditions: Staphylococcus aureus
Method: as §3

[20] = test system: S. aureus ATCC 6538 biofilm; assay: bacterial CFU inside mature biofilm post-treatment; type: cell-based, Staphylococcus aureus; conditions: 64 μg/mL, 24 hours
Method: as §1, §4

[21] = test system: MRSA USA300 (NRS384); assay: time-kill assay; type: cell-based, Staphylococcus aureus; conditions: 4 × MIC
[22] = test system: S. aureus NRS107 (RN4220); assay: accumulation of UDP-N-acetylmuramyl pentapeptide (HPLC-MS); type: cell-based, Staphylococcus aureus; conditions: 10 × MIC, 30 minutes
Method: The accumulation of UDP-N-acetylmuramyl pentapeptide was detected using a procedure described in a previous study, with the following modifications. S. aureus NRS107 (RN4220), in early logarithmic growth stage (OD600 ~ 0.60), was incubated with 130 μg/mL chloramphenicol for 15 minutes at 37°C. […] Untreated samples served as a negative control. Samples were centrifuged at 10,000 rpm for five minutes, the supernatant discarded, and the pellet re-suspended in sterile deionzined water (1 mL). The pellet was boiled at […] for 30 minutes before samples were chilled on ice for 10 minutes. UDP-N-acetylmuramyl-pentapeptide was measured using an Agilent High Performance Liquid Chromatography coupled to a time-of-flight Mass Spectrometer (HPLC-MS). A Waters XBridge Phenyl (2.1 × 100 mm, 3.5 μm) chromatography column was used, with mobile phases of water, 0.1% formic acid (Buffer A) and acetonitrile, 0.1% formic acid (Buffer B). A gradient of 5–20% Buffer B over 14 minutes was used, with a flow rate of 0.3 mL/min. An electrospray source was used, in positive ionization mode. Extracted Ion Chromatograms (EIC) were generated at a mass-to-charge ratio (m/z) of 1150.3588 (20 ppm window). Mass error for UDP-N-acetylmuramyl-pentapeptide was <1 ppm.

[23] = test system: MRSA USA400 (NRS123); assay: multi-step resistance selection; type: cell-based, Staphylococcus aureus; conditions: for increase in MIC after fourteen passages: fourteen passages over two weeks; for MIC: Staphylococcus aureus, read-out: initial MIC
Method: To assess MRSA’s ability to develop resistance to the diphenylurea compounds after repeated exposure, a multi-step resistance selection experiment was conducted. […] Resistance was classified as a greater than four-fold increase in the initial MIC, as reported elsewhere.

[24] = test system: MRSA USA400 (NRS123); assay: MIC in presence and absence of human serum albumin; type: cell-based, Staphylococcus aureus; conditions: for MIC: Staphylococcus aureus, TSB
Method: The broth microdilution assay presented above was used to assess if compounds 1 and 2 bind to a major component of blood (human serum albumin) thus limiting the free fraction of drug available to exert its antibacterial effect. […] CaCl2 ([…]) was added to wells containing daptomycin, per the CLSI guidelines.

[25] = 4% human serum albumin, read-out: MIC vs. MRSA USA400 (+HSA)
[26] = without human serum albumin, read-out: MIC vs. MRSA USA400 (-HSA)

In the case of `Cc1onc(-c2ccccc2)c1C(=O)N[C@@H]1C(=O)N2[C@@H]1SC(C)(C)[C@@H]2C(=O)O` [oxacillin], the “cytological profile (cell morphology)” value [1] is reported as “bulges and misshapen cells”.
In the case of `CN[C@H](CC(C)C)C(=O)N[C@H]1C(=O)N[C@@H](CC(N)=O)C(=O)N[C@H]2C(=O)N[C@H]3C(=O)N[C@H](C(=O)N[C@H](C(=O)O)c4cc(O)cc(O)c4-c4cc3ccc4O)[C@H](O)c3ccc(c(Cl)c3)Oc3cc2cc(c3O[C@@H]2O[C@H](CO)[C@@H](O)[C@H](O)[C@H]2O[C@H]2C[C@](C)(N)[C@H](O)[C@H](C)O2)Oc2ccc(cc2Cl)[C@H]1O` [Vancomycin, vancomycin, reference compound], the “change in optical density of S. aureus biofilm (biofilm mass)” value [2] is reported as “no change”, the MIC [3] is reported as 1 µg/mL (≈ 0.69 µM) and the MIC [4] is reported as 0.5 µg/mL (≈ 0.345 µM). For the same compound, the MIC [5] was 0.5 to 1 µg/mL (≈ 0.345 to 0.69 µM), the “reduction in bacterial CFU within S. epidermidis biofilm” value ([6]; 64 μg/mL) was 1.4 log10 and the “reduction in bacterial CFU within S. epidermidis biofilm” value ([6]; 128 μg/mL) was 3.14 log10. For the same compound, the “S. epidermidis biofilm mass, OD595” value ([7]; 128 μg/mL, untreated control OD595 = 4.00) was 3.80, the “reduction in S. epidermidis biofilm mass” value ([7]; 8 to 64 μg/mL, vs untreated control) was “no significant reduction” and the MIC [8] was 512 µg/mL. For the same compound, the MIC [9] was 512 µg/mL, the MBC [10] was 0.5 µg/mL (≈ 0.345 µM) and the MIC [10] was 0.5 µg/mL (≈ 0.345 µM). For the same compound, the MBC [11] was > 64 µg/mL, the MIC [11] was > 64 µg/mL and the MBC [12] was 1 µg/mL (≈ 0.69 µM). For the same compound, the MIC [12] was 1 µg/mL (≈ 0.69 µM), the MBC [13] was 2 µg/mL (≈ 1.38 µM) and the MIC [13] was 1 µg/mL (≈ 0.69 µM). The MBC [14] was > 64 µg/mL, the MIC [14] was > 64 µg/mL and the MBC [15] was 2 µg/mL (≈ 1.38 µM). For the same compound, the MIC [15] was 1 µg/mL (≈ 0.69 µM), the MBC [16] was > 64 µg/mL and the MIC [16] was 64 µg/mL (≈ 44.2 µM). For the same compound, the MBC [17] was 1 µg/mL (≈ 0.69 µM), the MIC [17] was 1 µg/mL (≈ 0.69 µM) and the MBC [18] was 1 µg/mL (≈ 0.69 µM). The MIC [18] was 0.5 µg/mL (≈ 0.345 µM), the MBC [19] was > 64 µg/mL and the MIC [19] was 64 µg/mL (≈ 44.2 µM). The “reduction in bacterial CFU within S. aureus biofilm” value [20] was 1.0 log10, the “time to completely eradicate a high inoculum of MRSA (~10^6 CFU/mL)” value [21] was 24 hours and the UDP-N-acetylmuramyl pentapeptide accumulation [22] was “notable increase”.
`Cc1onc(-c2ccccc2Cl)c1C(=O)N[C@@H]1C(=O)N2[C@@H]1SC(C)(C)[C@@H]2C(=O)O` [cloxacillin] was tested, and the “cytological profile (cell morphology)” value [1] was “bulges at the poles of the cells”.
`O=C(O)c1cn(C2CC2)c2cc(N3CCNCC3)c(F)cc2c1=O` [ciprofloxacin] was tested, and the “increase in MIC after fourteen passages” value ([23]; MRSA USA400 (NRS123)) was “seven-fold”, the “increase in MIC after seven passages” value ([23]; MRSA USA400 (NRS123), seven passages) was “three-fold” and the MIC [23] was 1 µg/mL (≈ 3.02 µM).
With `N[C@@H]1CON=C1O` [D-cycloserine] the “cytological profile (cell morphology)” value [1] was “bulges and misshapen cells”.
In the case of ramoplanin, the “cytological profile (cell morphology)” value [1] is reported as “bulges and misshapen cells”.
`CCCCCCCCCC(=O)N[C@@H](Cc1c[nH]c2ccccc12)C(=O)N[C@H](CC(N)=O)C(=O)N[C@@H](CC(=O)O)C(=O)N[C@@H]1C(=O)NCC(=O)N[C@@H](CCCN)C(=O)N[C@@H](CC(=O)O)C(=O)N[C@H](C)C(=O)N[C@@H](CC(=O)O)C(=O)NCC(=O)N[C@H](CO)C(=O)N[C@@H]([C@H](C)CC(=O)O)C(=O)N[C@@H](CC(=O)c2ccccc2N)C(=O)O[C@@H]1C` [Daptomycin, daptomycin, reference compound] gave an MIC [24, 25] of 64 µg/mL (≈ 39.5 µM) and an MIC [24, 26] of 2 µg/mL (≈ 1.23 µM).
`CC(=O)NC[C@H]1CN(c2ccc(N3CCOCC3)c(F)c2)C(=O)O1` [Linezolid, linezolid, reference compound] was tested, and the “increase in MIC after fourteen passages” value ([23]; MRSA USA400 (NRS123)) was “one-fold”, the MIC [23] was 2 µg/mL (≈ 5.93 µM) and the “increase in MIC in the presence of HSA” value ([24]; MRSA USA400, 4% human serum albumin vs none) was “remained unchanged”. For the same compound, the MIC [24, 25] was 1 µg/mL (≈ 2.96 µM) and the MIC [24, 26] was 1 µg/mL (≈ 2.96 µM).
